Experiments:
Type in all cases: cell-based
[1] = tested on: SREBP-1c protein; assay: SREBP-1c protein expression by western blotting, HepG2 cells; conditions: 14-3-3 overexpression, 200 μM oleic acid 72 hours, FIG. 7D
Method: In addition, HepG2 cells were seeded in a 6-well plate at a density of 5×10^5 cells per each well, and then transfected with HA-14-3-3β DNA (1 μg) or HA-14-3-3γ DNA (1 μg) using an E-fection plus reagent (Lugen). A ratio of DNA to the E-fection plus reagent was 1:2, and this method was performed according to a manufacturer's manual. After transfection, the cells were treated with 200 μM of oleic acid (OA) for 72 hours, washed with ice-cold PBS, and lysed with 80 μl/well of a lysis buffer (150 mM NaCl, 1 mM EDTA, 1% Nonidet P-40, 5% glycerol, 25 mM tris-HCl, pH 7.5, protease inhibitor added), the lysed cells were centrifuged at 10,000×g and 4° C. for 10 minutes to extract proteins, and 30 μg of the proteins was separated on a 10% SDS-PAGE gel and identified using each of the antibodies (HA, SREBP-1c: Santa Cruz) by western blotting, and all antibodies were used in a ratio of 1:3000. To verify whether such regulation of mRNA expression of the target genes of PPARγ2 is the same as in the expression of a protein thereof, an expression amount of the SREBP-1c protein was checked by western blotting. As a result of the experiment, it was confirmed that the expression of the SREBP-1c protein was increased by the overexpression of 14-3-3β and reduced by the overexpression of 14-3-3γ (see FIG. 7D).

[2] = tested on: primary mouse hepatocytes; assay: Oil Red-O lipid accumulation, primary mouse hepatocytes; conditions: 14-3-3 overexpression, 200 μM oleic acid 72 hours, FIG. 9B
Method: HepG2 cells and primary mouse hepatocytes were separately seeded in a 6-well plate at a density of 4×10^5 cells per each well, and then transfected with GFP-14-3-3β DNA (1 μg) or GFP-14-3-3γ DNA (1 μg) and si-14-3-3β (10 μM, Santa Cruz) or si-14-3-3γ (10 μM, Santa Cruz) using an E-fection plus reagent (Lugen). A ratio of DNA to the E-fection plus reagent was 1:2, and this method was performed according to a manufacturer's manual. […] The stained cells were bleached with 1 ml of isopropanol and analyzed at a wavelength of 550 nm using a DU530 spectrophotometer (Beckman Instruments, Palo Alto, Calif.).

[3] = tested on: FAT/CD36 promoter; assay: Chromatin immunoprecipitation (ChIP) of PPARγ2 on FAT/CD36 promoter, HepG2 cells; conditions: overexpression of 14-3-3β / 14-3-3γ, FIG. 7C upper side
Method: In addition, for chromatin immunoprecipitation (ChIP), HepG2 cells were seeded in a 100 mm plate at a density of 4×10^6 cells per each well, and then transfected with Flag-PPARγ2 DNA (4 μg), mGST-14-3-3β DNA (4 μg) or mGST-14-3-3γ DNA (4 μg), and si-14-3-3β (20 μM, Santa Cruz) or si-14-3-3γ (20 μM, Santa Cruz) using an E-fection plus reagent (Lugen). A ratio of DNA to the E-fection plus reagent was 1:2, and this method was performed according to a manufacturer's manual. The corresponding cells were treated with 0.75% formaldehyde at room temperature for 15 minutes, glycine was added thereto, and the resulting cells were scraped into ice-cold PBS and centrifuged at 1,000×g and 4° C. for 3 minutes to remove a supernatant, pellets were dissolved with 400 μl of FA lysis buffer (50 mM HEPES, 150 mM NaCl, 2 mM EDTA pH8.0, 1% Triton-X100, 0.1% NaDeoxycholate), and then lysed using a sonicator twice for 10 minutes at a high voltage under the following condition: lysis for […] and resting for 30 seconds. […]
In addition, the binding of PPARγ2 and a binding strength thereof according to the expression of 14-3-3β and 14-3-3γ were evaluated by ChIP assay using a PPAR response element (PPRE) known as a binding site of PPARγ2 present in the FAT/CD36 promoter. […]

Row | Substance | expression of the SREBP-1c protein [1] | lipid accumulation by oleic acid (Oil Red-O) [2] | binding of PPARγ2 to the FAT/CD36 promoter (ChIP) [3]
1 | 14-3-3β: 14-3-3 isoform protein, overexpressed by DNA transfection; regulating factor that increases transcriptional activity of PPARγ2 | increased | increased lipid accumulation | increased
2 | 14-3-3γ: 14-3-3 isoform protein, overexpressed by DNA transfection; regulating factor that decreases transcriptional activity of PPARγ2 | reduced | reduced lipid accumulation | inhibited

— US20180207294A1, “NON-ALCOHOLIC FATTY LIVER REGULATING FACTOR 14-3-3 PROTEIN” (Korea University Research and Business Foundation, priority 2015, published 2018)
